This note sets out measurements from patent publication US10071095B2, “1,2,4-triazolo [4,3-A] pyridine derivatives and their use for the treatment of neurological and psychiatric disorders” (JANSSEN PHARMACEUTICALS, INC., priority 2009, dated 2018).

The first assay deals with T1, human mGluR2 receptor (Homo sapiens, UniProt Q14416).
T1 construct: expressed in transfected cells; host or cells: CHO cells
T1 sequence (Q14416 19-872): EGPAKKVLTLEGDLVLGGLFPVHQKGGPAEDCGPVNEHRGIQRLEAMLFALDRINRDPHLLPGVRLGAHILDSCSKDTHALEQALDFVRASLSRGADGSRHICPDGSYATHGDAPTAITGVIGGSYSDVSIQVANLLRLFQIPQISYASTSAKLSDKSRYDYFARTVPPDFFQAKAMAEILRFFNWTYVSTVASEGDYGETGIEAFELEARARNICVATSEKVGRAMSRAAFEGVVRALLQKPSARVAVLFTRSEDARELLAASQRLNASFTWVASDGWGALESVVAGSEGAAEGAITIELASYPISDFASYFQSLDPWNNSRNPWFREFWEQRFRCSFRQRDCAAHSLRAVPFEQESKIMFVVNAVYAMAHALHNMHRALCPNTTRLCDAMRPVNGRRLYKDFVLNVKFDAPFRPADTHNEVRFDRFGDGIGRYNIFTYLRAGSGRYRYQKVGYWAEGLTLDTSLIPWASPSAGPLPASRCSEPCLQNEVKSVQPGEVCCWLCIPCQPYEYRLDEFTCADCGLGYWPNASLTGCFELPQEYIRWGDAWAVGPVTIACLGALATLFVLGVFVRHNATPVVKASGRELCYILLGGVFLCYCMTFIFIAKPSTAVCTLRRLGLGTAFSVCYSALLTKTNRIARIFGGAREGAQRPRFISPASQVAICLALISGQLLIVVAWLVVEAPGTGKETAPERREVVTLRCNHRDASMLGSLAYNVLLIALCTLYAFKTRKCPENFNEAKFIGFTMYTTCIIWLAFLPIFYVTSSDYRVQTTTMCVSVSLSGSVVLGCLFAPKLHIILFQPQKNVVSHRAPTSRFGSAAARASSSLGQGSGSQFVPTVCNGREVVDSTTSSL
Description: [35S]GTPγS binding assay, positive allosteric modulation (GTPγS-PAM) in presence of EC20 glutamate. The assay is classed as biochemical. To be noted: in presence of glutamate at EC20; average pEC50 if more experiments; ‡ means tested once. The gist of the method: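 Membranes from butyrate-stimulated CHO cells expressing human mGluR2 (7 μg protein) preincubated 30 min at 30°C with compound plus ~EC20 glutamate in HEPES pH 7.4, 100 mM NaCl, 3 mM MgCl2, 10 μM GDP, 10 μg/ml saponin. [35S]GTPγS (0.1 nM) incorporation over 30 min at 30°C measured by filtration and scintillation counting.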
On the technique in general: GTPγS resists hydrolysis and so accumulates on activated G proteins.
In the case of `FC1(c2ccccc2)CCN(c2ccn3c(CCC4CC4)nnc3c2Cl)CC1` [compound 140], the “GTPγS - hR2 PAM pEC50” value amounted to 6.55.

Take `CCOCc1nnc2c(Cl)c(N3CCC(c4c(F)ccc(F)c4OC)CC3)ccn12` [compound 86]: the “GTPγS - hR2 PAM pEC50” value was 7.95.

Take `Cc1cccnc1OC1CCN(c2ccn3c(CC(F)(F)F)nnc3c2Cl)CC1` [compound 59]: the “GTPγS - hR2 PAM pEC50” value worked out at 7.17.

Take `FC(F)(F)c1cc(CN2CCN(c3ccn4c(CC5CC5)nnc4c3Cl)CC2)cc(C(F)(F)F)c1` [compound 304]: the “GTPγS - hR2 PAM pEC50” value was found to be 6.12.

With `Fc1ccc(CN2CCN(c3ccn4c(CC5CC5)nnc4c3C(F)(F)F)CC2)c(F)c1` [compound 227], the “GTPγS - hR2 PAM pEC50” value was 6.31‡.

As to `FC(F)(F)c1c(N2CCC(Oc3ccccn3)CC2)ccn2c(CC3CC3)nnc12` [compound 124], the “GTPγS - hR2 PAM pEC50” value was 6.98.

For the compound `CC(C)(C)Cc1nnc2c(C(F)(F)F)c(N3CCC(c4ccccc4)CC3)ccn12` [compound 177], the “GTPγS - hR2 PAM pEC50” value is 7.67.

`N#Cc1c(N2CCN(Cc3ccc(OCC4CC4)c(Cl)c3)CC2)ccn2c(CC(F)(F)F)nnc12` [compound 52]: the “GTPγS - hR2 PAM pEC50” value is 6.98‡.

On to `FC(F)(F)c1c(N2CCC(Nc3ccccc3)CC2)ccn2c(CC3CC3)nnc12` [compound 175], for which the “GTPγS - hR2 PAM pEC50” value is 6.33.

Consider `CCOCc1nnc2c(Cl)c(N3CCC(c4c(F)cc(F)cc4OC)CC3)ccn12` [compound 85], for which the “GTPγS - hR2 PAM pEC50” value is reported as 8.06.

Take `Fc1ccccc1NC1CN(c2ccn3c(CC4CC4)nnc3c2Cl)C1` [compound 190]: the “GTPγS - hR2 PAM pEC50” value was determined as 6.5.

`CCOCc1nnc2c(C(F)(F)F)c(N3CCC(F)(c4ccccc4)CC3)ccn12` [compound 141]: the “GTPγS - hR2 PAM pEC50” value was 6.95.

Regarding `N#Cc1c(N2CCC(c3ccccc3)CC2)ccn2c(CN3CCC(C(F)(F)F)CC3)nnc12` [compound 37], the “GTPγS - hR2 PAM pEC50” value came to 6.51.

Take `Fc1cccc(C2(C(F)(F)F)CCN(c3ccn4c(CC5CC5)nnc4c3Cl)CC2)c1` [compound 117]: the “GTPγS - hR2 PAM pEC50” value is recorded as 6.68.

For the compound `CCOCc1nnc2c(C(F)(F)F)c(N3CCC(c4ccc(F)cc4F)CC3)ccn12.Cl` [compound 339], the “GTPγS - hR2 PAM pEC50” value is 7.15‡.

In the case of `CC(C)OCc1nnc2c(Cl)c(N3CCC(c4ccccc4)(C(F)(F)F)CC3)ccn12` [compound 144], the “GTPγS - hR2 PAM pEC50” value was 6.25.

As for `FC(F)(F)CCc1nnc2c(Cl)c(N3CCC(c4ccccc4)CC3)ccn12` [compound 71], the “GTPγS - hR2 PAM pEC50” value is reported as 6.65‡.

Regarding `FC(F)(F)c1c(N2CC3C(C2)C3c2ccccc2)ccn2c(CC3CC3)nnc12` (racemic) [compound 75], the “GTPγS - hR2 PAM pEC50” value was 7.05.

Regarding `Fc1ccccc1C1CCN(c2ccn3c(CC4CC4)nnc3c2C(F)(F)F)CC1` [compound 274], the “GTPγS - hR2 PAM pEC50” value is given as 7.83‡.

`N#Cc1c(N2CCC(c3ccccc3)CC2)ccn2c(CC3CCC3)nnc12` [compound 34]: the “GTPγS - hR2 PAM pEC50” value worked out at 7.35.

Take `Fc1cc(F)cc(N2CCN(c3ccn4c(CC5CC5)nnc4c3C(F)(F)F)CC2)c1` [compound 351]: the “GTPγS - hR2 PAM pEC50” value is 7.46‡.

As for `CCCc1nnc2c(C(F)(F)F)c(N3CCC4(CC3)COc3ccccc34)ccn12` [compound 87], the “GTPγS - hR2 PAM pEC50” value is 6.94.

Turning to `CCCc1nnc2c(C(F)(F)F)c(N3CCC4(CC3)OC(C)(C)c3ccccc34)ccn12` [compound 113], the “GTPγS - hR2 PAM pEC50” value stood at 7.59.

Turning to `FC(F)(F)c1c(N2CCC(c3ccccc3)C2)ccn2c(CC3CC3)nnc12` (stereo not drawn) [compound 174], the “GTPγS - hR2 PAM pEC50” value was 5.91‡.

Take `CC1(C)CN(c2ccn3c(CC4CC4)nnc3c2C(F)(F)F)CCN1c1ccccc1` [compound 72]: the “GTPγS - hR2 PAM pEC50” value was determined as 7.06.

Consider `N#Cc1c(N2CCC(c3ccccc3)CC2)ccn2c(C3(C(F)(F)F)CC3)nnc12` [compound 31], for which the “GTPγS - hR2 PAM pEC50” value is 6.27.

`O=C1OC2(CCN(c3ccn4c(CC5CC5)nnc4c3Cl)CC2)c2ccccc21` [compound 149]: the “GTPγS - hR2 PAM pEC50” value was 6.5‡.

Turning to `Fc1ccc(OC2CCN(c3ccn4c(CC5CC5)nnc4c3C(F)(F)F)CC2)c(F)c1` [compound 315], the “GTPγS - hR2 PAM pEC50” value stood at 7.24.

Take `Fc1ccc(N2C[C@@H]3CN(c4ccn5c(CC6CC6)nnc5c4Cl)C[C@@H]3C2)c(F)c1` [compound 186]: the “GTPγS - hR2 PAM pEC50” value is on record as 7.27.

Take `N#Cc1c(N2CCN(C3CCC(C(F)(F)F)CC3)CC2)ccn2c(CC3CC3)nnc12` (stereo not drawn) [compound 45]: the “GTPγS - hR2 PAM pEC50” value was 6.07‡.

On to `FC(F)(F)Cc1nnc2c(Cl)c(N3CCC(c4ccccc4)CC3)ccn12` [compound 22], for which the “GTPγS - hR2 PAM pEC50” value is on record as 7.26.

Take `CC(C)OCc1nnc2c(Cl)c(N3CCC(c4ccccc4)CC3)ccn12` [compound 135]: the “GTPγS - hR2 PAM pEC50” value came out at 6.77.

In the case of `Fc1ccc(N2CC3(CCN(c4ccn5c(CC6CC6)nnc5c4C(F)(F)F)CC3)C2)c(F)c1` [compound 201], the “GTPγS - hR2 PAM pEC50” value worked out at 6.9.

In the case of `CCCc1nnc2c(C#N)c(N3CCC(c4cccc(F)c4OC)CC3)ccn12` [compound 23], the “GTPγS - hR2 PAM pEC50” value came to 6.98.

In the case of `Clc1c(N2CCC(c3ccccc3)CC2)ccn2c(CCC3CC3)nnc12` [compound 146], the “GTPγS - hR2 PAM pEC50” value came to 7.02.

For `C[C@@H]1CN(c2ccn3c(CC(F)(F)F)nnc3c2Cl)CCN1c1cc(F)cc(F)c1` [compound 192], the “GTPγS - hR2 PAM pEC50” value came out at 6.63.

Turning to `COc1cccc(F)c1C1CCN(c2ccn3c(CC4CC4)nnc3c2C#N)CC1` [compound 57], the “GTPγS - hR2 PAM pEC50” value is 8.16‡.

In the case of `Fc1ccc(COC2CCN(c3ccn4c(CC5CC5)nnc4c3C(F)(F)F)CC2)c(F)c1` [compound 279], the “GTPγS - hR2 PAM pEC50” value is given as 7.24‡.

In the case of `FC(F)(F)Cc1nnc2c(Cl)c(N3CCN(c4ncccn4)CC3)ccn12` [compound 63], the “GTPγS - hR2 PAM pEC50” value turned out to be 6.08.

In the case of `COc1cnc(C2CCN(c3ccn4c(CC5CC5)nnc4c3C(F)(F)F)CC2)nc1` [compound 111], the “GTPγS - hR2 PAM pEC50” value is on record as 6.26.

Still in this assay, the particulars now being: in presence of glutamate at EC20; average pEC50 if more experiments; ‡ means tested once; read-out: GTPγS - hR2 PAM pEC50 (converted).
`CCOCc1nnc2c(Cl)c(N3CCC(c4ccccc4)CC3)ccn12` [compound 5, 8-Chloro-3-(ethoxymethyl)-7-(4-phenyl-1-piperidinyl)-1,2,4-triazolo[4,3-a]pyridine]: the EC50 is 132 nM.

In the case of `CC1(C)OC2(CCN(c3ccn4c(CC5CC5)nnc4c3C(F)(F)F)CC2)c2ccc(F)cc21` [compound 200, 1′-[3-(Cyclopropylmethyl)-8-(trifluoromethyl)-1,2,4-triazolo[4,3-a]pyridin-7-yl]-5-fluoro-3,3-dimethyl-spiro[isobenzofuran-1(3H),4′-piperidine]], the EC50 is 3.55 nM.

On to `CC(C)(O)c1ccccc1C1CCN(c2ccn3c(CC4CC4)nnc3c2Cl)CC1` [compound 7, 2-[1-[8-Chloro-3-(cyclopropylmethyl)-1,2,4-triazolo[4,3-a]pyridin-7-yl]-4-piperidinyl]-α,α-dimethyl-benzenemethanol], for which the EC50 is 39.8 nM.

With `N#Cc1c(N2CCC(c3ccccc3)CC2)ccn2c(C3CCC3)nnc12` [compound 14, 3-Cyclobutyl-7-(4-phenyl-1-piperidinyl)-1,2,4-triazolo[4,3-a]pyridine-8-carbonitrile], the EC50 was 427 nM.

`CC(C)Cc1nnc2c(Cl)c(N3CCC(c4ccccc4)CC3)ccn12` [compound 9, 8-Chloro-3-(2-methylpropyl)-7-(4-phenyl-1-piperidinyl)-1,2,4-triazolo[4,3-a]pyridine]: the EC50 is 269 nM.
